Measured values from US20260078130A1, “NAMPT MODULATORS, PREPARATIONS, AND USES THEREOF” (SIRONAX LTD., priority 2022, published 2026).
pEC50: −log10 of the molar value.

What was measured:
[1] = target: T1, human enzyme NAMPT (full length) (Homo sapiens, UniProt P43490); test: NMN fluorescence biochemical assay (stimulation of NMN synthesis by NAMPT); conditions: for pEC50: NMN synthesis by purified human NAMPT (100 nM), concentration giving half-maximal activation, read-out: Enzymatic EC50; for Enzymatic Emax: fold change of maximal activation compared to DMSO
T1 construct: human enzyme NAMPT (full length)
T1 sequence (P43490 whole entry): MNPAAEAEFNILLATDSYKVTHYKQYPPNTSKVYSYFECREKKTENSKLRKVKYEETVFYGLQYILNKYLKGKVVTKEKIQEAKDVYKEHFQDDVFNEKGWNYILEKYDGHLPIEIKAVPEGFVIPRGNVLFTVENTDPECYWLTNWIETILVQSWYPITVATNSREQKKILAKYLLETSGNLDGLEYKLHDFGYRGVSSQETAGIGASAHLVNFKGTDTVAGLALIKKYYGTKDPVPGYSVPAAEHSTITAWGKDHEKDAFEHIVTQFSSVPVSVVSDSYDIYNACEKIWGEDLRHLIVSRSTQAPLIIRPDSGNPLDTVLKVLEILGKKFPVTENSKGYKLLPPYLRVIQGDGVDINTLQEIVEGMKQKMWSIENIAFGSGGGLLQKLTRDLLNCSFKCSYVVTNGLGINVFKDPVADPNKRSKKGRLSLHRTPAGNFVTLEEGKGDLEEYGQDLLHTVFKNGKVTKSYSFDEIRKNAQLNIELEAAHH
Method in brief: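 Full-length human NAMPT (100 nM) was preincubated 15 min at 37 °C with compound in 50 mM Tris-HCl pH 7.5, 10 mM MgCl2, 2 mM DTT, then reacted 1 h at 37 °C with 50 μM NAM, 100 μM PRPP, 4 mM ATP (stated solution concentrations). NMN was derivatised with acetophenone/KOH then formic acid and read at Ex/Em 382/445 nm; EC50 and Emax (fold over DMSO) reported.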

[2] = test system: endogenous NAMPT in U2OS cells; test: Cellular NAD+ modulation assay (NAD/NADH-Glo, U2OS cells); type: cell-based; conditions: Homo sapiens, 24 hours incubation with compound; for maximal fold induction: read-out: Cellular Emax
Method in brief: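 Endogenous NAMPT stimulation in U2OS cells treated with compound dilution series for 24 h at 37 °C. Cells lysed with DTAB base, acid-treated 15 min at 60 °C, neutralized, NAD+ read by NAD/NADH-Glo luminescence after 40 min at room temperature. EC50 and Emax (fold over DMSO) derived.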

SMILES	pEC50 [1]	Enzymatic Emax [1]	pEC50 [2]	maximal fold induction [2]
C#Cc1cccnc1CC1c2ccccc2C(=O)N1Cc1ccc2[nH]c(=O)oc2c1 (centres unmarked) [Compound 215, 6-((1-((3-ethynylpyridin-2-yl)methyl)-3-oxoisoindolin-2-yl)methyl)benzo[d]oxazol-2(3H)-one]	5.30 to 6.30	A (A>3)	> 6.30	> 1.5
Cc1scnc1CC1c2ccccc2C(=O)N1Cc1ccc2[nH]c(=O)oc2c1 (centres unmarked) [Compound 217, 6-((1-((5-methylthiazol-4-yl)methyl)-3-oxoisoindolin-2-yl)methyl)benzo[d]oxazol-2(3H)-one]	5.30 to 6.30	A (A>3)	5.30 to 6.30	> 1.5
N#Cc1ccc(Br)c(CC2c3ccccc3C(=O)N2Cc2ccc3[nH]c(=O)oc3c2)n1 (centres unmarked) [Compound 221, 5-bromo-6-((3-oxo-2-((2-oxo-2,3-dihydrobenzo[d]oxazol-6-yl)methyl)isoindolin-1-yl)methyl)picolinonitrile]	> 6.30	A (A>3)	> 6.30	> 1.5
O=C1c2ccccc2C(Cc2ncccc2Br)N1Cc1cc2oc(=O)[nH]c2cc1F (centres unmarked) [Compound 223, 6-((1-((3-bromopyridin-2-yl)methyl)-3-oxoisoindolin-2-yl)methyl)-5-fluorobenzo[d]oxazol-2(3H)-one]	> 6.30	A (A>3)	5.30 to 6.30	> 1.5
O=C1c2ccccc2C(Cc2ncccc2Br)N1Cc1ccc2[nH]c(=O)oc2c1F (centres unmarked) [Compound 224, 6-((1-((3-bromopyridin-2-yl)methyl)-3-oxoisoindolin-2-yl)methyl)-7-fluorobenzo[d]oxazol-2(3H)-one]	> 6.30	A (A>3)	5.30 to 6.30	> 1.5
O=C1c2ccccc2C(CC2=CCOCC2)N1Cc1ccc2[nH]c(=O)oc2c1 (centres unmarked) [Compound 225, 6-((1-((3,6-dihydro-2H-pyran-4-yl)methyl)-3-oxoisoindolin-2-yl)methyl)benzo[d]oxazol-2(3H)-one]	5.30 to 6.30	A (A>3)	5.30 to 6.30	> 1.5
O=C1c2ccccc2C(Cc2nnc(Cl)cc2Cl)N1Cc1ccc2[nH]c(=O)oc2c1 (centres unmarked) [Compound 227, 6-((1-((4,6-dichloropyridazin-3-yl)methyl)-3-oxoisoindolin-2-yl)methyl)benzo[d]oxazol-2(3H)-one]	5.30 to 6.30	A (A>3)	5.30 to 6.30	> 1.5
N#Cc1nccc(Cl)c1CC1c2ccccc2C(=O)N1Cc1ccc2[nH]nnc2c1 (centres unmarked) [Compound 228, 3-((2-((1H-benzo[d][1,2,3]triazol-5-yl)methyl)-3-oxoisoindolin-1-yl)methyl)-4-chloropicolinonitrile]	> 6.30	B (3≥B>2)	> 6.30	> 1.5
Cc1ocnc1CC1c2ccccc2C(=O)N1Cc1ccc2[nH]c(=O)oc2c1 (centres unmarked) [Compound 231, 6-((1-((5-methyloxazol-4-yl)methyl)-3-oxoisoindolin-2-yl)methyl)benzo[d]oxazol-2(3H)-one]	≤ 5.30	A (A>3)	5.30 to 6.30	> 1.5
Cn1cc(Cl)c(CC2c3ccccc3C(=O)N2Cc2ccc3[nH]c(=O)oc3c2)n1 (centres unmarked) [Compound 232, 6-((1-((4-chloro-1-methyl-1H-pyrazol-3-yl)methyl)-3-oxoisoindolin-2-yl)methyl)benzo[d]oxazol-2(3H)-one]	> 6.30	A (A>3)	> 6.30	> 1.5
Cn1cccc(CC2c3ccccc3C(=O)N2Cc2ccc3[nH]c(=O)oc3c2)c1=O (centres unmarked) [Compound 234, 6-((1-((1-methyl-2-oxo-1,2-dihydropyridin-3-yl)methyl)-3-oxoisoindolin-2-yl)methyl) benzo[d]oxazol-2(3H)-one]	≤ 5.30	A (A>3)	5.30 to 6.30	> 1.5
O=C1c2ccccc2C(Cc2ncccc2Br)N1Cc1ccc2[nH]ncc2c1 (centres unmarked) [Compound 240, 2-((1H-indazol-5-yl)methyl)-3-((3-bromopyridin-2-yl)methyl)isoindolin-1-one]	> 6.30	B (3≥B>2)	> 6.30	1.2 to 1.5
O=C1c2ccccc2C(Cc2ncccc2Br)N1Cc1ccc2[nH]c(=O)oc2n1 (centres unmarked) [Compound 241, 5-((1-((3-bromopyridin-2-yl)methyl)-3-oxoisoindolin-2-yl)methyl)oxazolo[5,4-b]pyridin-2(1H)-one]	5.30 to 6.30	A (A>3)	5.30 to 6.30	1.2 to 1.5
N#Cc1cccnc1CC1c2ccccc2C(=O)N1Cc1ccc2[nH]c(=O)oc2c1 (centres unmarked) [Compound 257, 2-((3-oxo-2-((2-oxo-2,3-dihydrobenzo[d]oxazol-6-yl)methyl)isoindolin-1-yl)methyl) nicotinonitrile]	5.30 to 6.30	A (A>3)	> 6.30	> 1.5
O=C1NCC2(CC(CN3C(=O)c4ccccc4C3Cc3ncccc3Br)C2)O1 (centres unmarked) [Compound 270, 2-((1-((3-bromopyridin-2-yl)methyl)-3-oxoisoindolin-2-yl)methyl)-5-oxa-7-azaspiro[3.4]octan-6-one]	> 6.30	A (A>3)	> 6.30	1.2 to 1.5
O=C1c2ccccc2C(Cc2ncccc2Br)N1Cc1cc2nn[nH]c2cc1F (centres unmarked) [Compound 271, 3-((3-bromopyridin-2-yl)methyl)-2-((6-fluoro-1H-benzo[d][1,2,3]triazol-5-yl)methyl) isoindolin-1-one]	5.30 to 6.30	A (A>3)	5.30 to 6.30	> 1.5
Cc1cccc2c1C(Cc1c(Cl)ccnc1C#N)N(Cc1ccc3[nH]c(=O)oc3c1)C2=O (centres unmarked) [Compound 272, 4-chloro-3-((7-methyl-3-oxo-2-((2-oxo-2,3-dihydrobenzo[d]oxazol-6-yl)methyl)isoindolin-1-yl)methyl)picolinonitrile]	5.30 to 6.30	A (A>3)	> 6.30	> 1.5
CC1c2cc(F)ccc2C(=O)N1Cc1ccc2[nH]c(=O)oc2c1 (centres unmarked) [Compound 275, 6-((5-fluoro-3-methyl-1-oxoisoindolin-2-yl)methyl)benzo[d]oxazol-2(3H)-one]	≤ 5.30	B (3≥B>2)	5.30 to 6.30	> 1.5
N#Cc1ccc2c(c1)C(Cc1c(Cl)ccnc1C#N)N(Cc1ccc3[nH]c(=O)oc3c1)C2=O (centres unmarked) [Compound 276, 3-((4-chloro-2-cyanopyridin-3-yl)methyl)-1-oxo-2-((2-oxo-2,3-dihydrobenzo[d]oxazol-6-yl)methyl)isoindoline-5-carbonitrile]	> 6.30	A (A>3)	> 6.30	> 1.5
COCCn1cc(Cl)c(CC2c3ccccc3C(=O)N2Cc2ccc3[nH]c(=O)oc3c2)n1 (centres unmarked) [Compound 277, 6-((1-((4-chloro-1-(2-methoxyethyl)-1H-pyrazol-3-yl)methyl)-3-oxoisoindolin-2-yl)methyl) benzo[d]oxazol-2(3H)-one]	5.30 to 6.30	A (A>3)	> 6.30	> 1.5
